Source: publication PMC9598282 (Antibiotics, 2022)
≈ marks a conversion by molar mass, not a printed value. Like-named read-outs stand apart in the source and are kept apart here. Bridge positions count the residues as written; N and C are the ends. Square brackets hold non-standard residues; d marks the D form. Peptide text beside a SMILES is read from it. Dab = NCC[C@H](N)C(=O)O

Experiments:
P. aeruginosa 114228 [1] = format: cell-based, Pseudomonas aeruginosa; conditions: 114228, 18 h
Description: (§1) For the preparation of the bacterial solution, overnight grown culture was diluted in 0.85% saline solution, adjusted to 0.5 McFarland turbidity and further diluted in Mueller–Hinton broth for inoculation to a final concentration of 5 × 10^5 colony forming units/mL (CFU/mL). The agents were serially diluted two-fold in a 96-well plate, and equal volumes of bacterial solution were subsequently added to the designated wells. The well consisting of bacterial solution served as the positive control, while the well containing only media served as the negative control. The plate was then incubated at 37 °C for 18 h. After incubation, an Emax Plus microplate reader (Molecular Devices, Union City, CA, USA) was used to measure the optical density (OD) at a wavelength of 590 nm to confirm the turbidity. The antibacterial activity corresponded to the MIC, which is defined as the lowest concentration of the agent necessary to inhibit visible bacterial growth.

P. aeruginosa PAO1 = format: cell-based, Pseudomonas aeruginosa; conditions: wild-type
Description: as §1

A. baumannii LAC-4 = format: cell-based, Acinetobacter baumannii; conditions: LAC-4, 18 h
Description: as §1

P. aeruginosa PA 107092 [2] = assay: MIC, broth microdilution; format: cell-based, Pseudomonas aeruginosa; conditions: β-lactamase harboring isolate
Description: as §1

P. aeruginosa PA 108590 = assay: MIC, broth microdilution; format: cell-based, Pseudomonas aeruginosa; conditions: β-lactamase harboring isolate
Description: as §1

P. aeruginosa PA 109084 [3] = assay: MIC, broth microdilution; format: cell-based, Pseudomonas aeruginosa; conditions: β-lactamase harboring isolate
Description: as §1

P. aeruginosa PA 86052 [4] = assay: MIC, broth microdilution; format: cell-based, Pseudomonas aeruginosa; conditions: β-lactamase harboring isolate
Description: as §1

P. aeruginosa PA 88949 [5] = assay: MIC, broth microdilution; format: cell-based, Pseudomonas aeruginosa; conditions: β-lactamase harboring isolate
Description: as §1

P. aeruginosa 114228 [6] = assay: microbe, parasite or virus in culture; format: cell-based, Pseudomonas aeruginosa
Summary of the method: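 Antibiotic and guanidinylated polymyxin adjuvant were two-fold serially diluted across perpendicular axes, combined with bacterial suspension and incubated 18 h at 37 °C. Turbidity was read as OD590. FIC index is the sum of each agent's MIC in combination divided by its MIC alone: ≤0.5 synergy, 0.5–4 additivity, >4 antagonism.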

P. aeruginosa 101243 = assay: Checkerboard assay; format: cell-based, Pseudomonas aeruginosa
Description: (§2) The adjuvant properties of the guanidinylated polymyxins were evaluated using the checkerboard assay as previously described. The bacterial solution was prepared as described in the antimicrobial susceptibility assay. The antibiotic of interest and the adjuvant were serially diluted two-fold along the x- and y-axis on a 96-well plate, respectively, resulting in varying concentrations of both agents in each well. Equal volumes of bacterial solution were added to the designated wells. The well consisting of bacterial solution served as the positive control, while the wells containing only media served as the negative control. The plate was then incubated at 37 °C for 18 h. After incubation, an Emax Plus microplate reader (Molecular Devices, Union City, CA, USA) was used to measure the OD at a wavelength of 590 nm to confirm the turbidity. The fractional inhibitory concentration (FIC) index was then determined to establish the relationship between the antibiotic and adjuvant. The FIC index corresponds to the sum of the FICs of the antibiotic and adjuvant. The FIC of each agent is calculated by dividing its MIC when it is used in combination by its MIC when used alone. FIC indices ≤0.5, 0.5 < x ≤ 4 and >4 indicate synergy, additivity and antagonism, respectively.

P. aeruginosa P259-96918 = assay: Checkerboard assay; format: cell-based, Pseudomonas aeruginosa
Description: as §2

[7] = tested on: P. aeruginosa P262-101856; assay: Checkerboard assay; format: cell-based, Pseudomonas aeruginosa
Description: as §2

[8] = tested on: P. aeruginosa P264-104354; assay: Checkerboard assay; format: cell-based, Pseudomonas aeruginosa
Description: as §2

E. coli 107115 = assay: microbe, parasite or virus in culture; format: cell-based, Escherichia coli
Description: as §2

E. coli 94393 = assay: Checkerboard assay; format: cell-based, Escherichia coli
Description: as §2

E. coli 94474 = assay: Checkerboard assay; format: cell-based, Escherichia coli
Description: as §2

E. cloacae 121187 = assay: microbe, parasite or virus in culture; format: cell-based, Enterobacter cloacae
Description: as §2

E. cloacae 118564 = assay: Checkerboard assay; format: cell-based, Enterobacter cloacae
Description: as §2

P. aeruginosa PA 107092 [9] = format: cell-based, Pseudomonas aeruginosa
Description: as §2

P. aeruginosa PA 109084 [10] = format: cell-based, Pseudomonas aeruginosa
Description: as §2

P. aeruginosa PA 86052 [11] = format: cell-based, Pseudomonas aeruginosa; conditions: PA 86052, 18 h
Description: as §2

P. aeruginosa PA 88949 [12] = format: cell-based, Pseudomonas aeruginosa
Description: as §2

[13] = agent alone, one value per checkerboard plate
[14] = with 8 μM avibactam, adjuvant at 2 (PMBN, GCol), 1 (GPMB) μg/mL
[15] = adjuvant at 0.5 μg/mL as printed

Question: What does the source list for `CC(C)C[C@@H]1NC(=O)[C@@H](Cc2ccccc2)NC(=O)[C@H](CCN)NC(=O)[C@@H](NC(=O)[C@H](CCN)NC(=O)[C@@H](N)[C@@H](C)O)CCNC(=O)[C@H]([C@@H](C)O)NC(=O)[C@H](CCN)NC(=O)[C@H](CCN)NC1=O` [PMBN, polymyxin B nonapeptide] (H-T[Dab][Dab][Dab][dF]L[Dab][Dab]T; lactam 3-C (inferred); N-terminus assumed)?
Answer: MIC (P. aeruginosa 114228 [1]): >256 µg/mL; MIC (P. aeruginosa PAO1): 128 µg/mL (≈ 133 µM); MIC (A. baumannii LAC-4): >256 µg/mL; MIC (P. aeruginosa PA 107092 [2]): 64 µg/mL (≈ 66.4 µM); MIC (P. aeruginosa PA 108590): 1 µg/mL (≈ 1.04 µM); MIC (P. aeruginosa PA 109084 [3]): 32 µg/mL (≈ 33.2 µM); MIC (P. aeruginosa PA 86052 [4]): 16 µg/mL (≈ 16.6 µM); MIC (P. aeruginosa PA 88949 [5]): 16 µg/mL (≈ 16.6 µM); MIC alone (P. aeruginosa 114228 [6]; 114228, 18 h): 256 µg/mL; Fold-potentiation of aztreonam (P. aeruginosa 114228 [6]; with 8 μg/mL adjuvant): 1; Fold-potentiation of ceftazidime (P. aeruginosa 114228 [6]; with 8 μg/mL adjuvant): 8; Fold-potentiation of erythromycin (P. aeruginosa 114228 [6]; with 8 μg/mL adjuvant): 1; Fold-potentiation of rifampicin (P. aeruginosa 114228 [6]; with 8 μg/mL adjuvant): 8; MIC alone (P. aeruginosa 101243; [13]): > 256 µg/mL; Fold-potentiation of aztreonam (P. aeruginosa 101243; with 8 μg/mL adjuvant): 2; Fold-potentiation of ceftazidime (P. aeruginosa 101243; with 8 μg/mL adjuvant): 8; Fold-potentiation of erythromycin (P. aeruginosa 101243; with 8 μg/mL adjuvant): 1; Fold-potentiation of rifampicin (P. aeruginosa 101243; with 8 μg/mL adjuvant): 8; MIC alone (P. aeruginosa P259-96918; [13]): > 256 µg/mL; Fold-potentiation of aztreonam (P. aeruginosa P259-96918; with 4 μg/mL adjuvant): 8; Fold-potentiation of ceftazidime (P. aeruginosa P259-96918; with 4 μg/mL adjuvant): 4; Fold-potentiation of erythromycin (P. aeruginosa P259-96918; with 4 μg/mL adjuvant): 8; Fold-potentiation of rifampicin (P. aeruginosa P259-96918; with 4 μg/mL adjuvant): 128; MIC alone [7, 13]: > 256 µg/mL; Fold-potentiation of aztreonam ([7]; with 8 μg/mL adjuvant): 8; Fold-potentiation of ceftazidime ([7]; with 8 μg/mL adjuvant): 4; Fold-potentiation of erythromycin ([7]; with 8 μg/mL adjuvant): 16; Fold-potentiation of rifampicin ([7]; with 8 μg/mL adjuvant): 16; MIC alone [8, 13]: > 256 µg/mL; Fold-potentiation of aztreonam ([8]; with 2 μg/mL adjuvant): 2; Fold-potentiation of ceftazidime ([8]; with 2 μg/mL adjuvant): 1; Fold-potentiation of erythromycin ([8]; with 2 μg/mL adjuvant): 1; Fold-potentiation of rifampicin ([8]; with 2 μg/mL adjuvant): 64; MIC alone (E. coli 107115; 107115, 18 h): < 256 µg/mL; MIC alone (E. coli 107115; [13]): > 256 µg/mL; Fold-potentiation of erythromycin (E. coli 107115; with 1 μg/mL adjuvant): 32; Fold-potentiation of rifampicin (E. coli 107115; with 1 μg/mL adjuvant): 512; Fold-potentiation of ceftazidime (E. coli 107115; with 2 μg/mL adjuvant): 32; MIC alone (E. coli 94393; [13]): > 256 µg/mL; Fold-potentiation of erythromycin (E. coli 94393; with 2 μg/mL adjuvant): 8; Fold-potentiation of rifampicin (E. coli 94393; with 2 μg/mL adjuvant): 8; MIC alone (E. coli 94474; [13]): > 256 µg/mL; Fold-potentiation of erythromycin (E. coli 94474; with 4 μg/mL adjuvant): 1; Fold-potentiation of rifampicin (E. coli 94474; with 4 μg/mL adjuvant): 8; MIC alone (E. cloacae 121187; 121187, 18 h): 256 µg/mL; MIC alone (E. cloacae 121187; [13]): > 256 µg/mL; Fold-potentiation of erythromycin (E. cloacae 121187; with 8 μg/mL adjuvant): 1; Fold-potentiation of rifampicin (E. cloacae 121187; with 8 μg/mL adjuvant): 1; MIC alone (E. cloacae 118564; [13]): > 256 µg/mL; Fold-potentiation of erythromycin (E. cloacae 118564; with 8 μg/mL adjuvant): 4; Fold-potentiation of rifampicin (E. cloacae 118564; with 8 μg/mL adjuvant): 8; MIC adjuvant alone (P. aeruginosa PA 107092 [9]; PA 107092, 18 h): 56 µM; Fold potentiation of aztreonam (P. aeruginosa PA 107092 [9]; adjuvant at 2 μg/mL as printed): 4; Fold potentiation of ceftazidime (P. aeruginosa PA 107092 [9]; adjuvant at 2 (PMBN, GCol), 1 (GPMB) μg/mL): 8; Fold potentiation of aztreonam (P. aeruginosa PA 107092 [9]; [14]): 4; Fold potentiation of ceftazidime (P. aeruginosa PA 107092 [9]; [14]): 8; MIC adjuvant alone (P. aeruginosa PA 109084 [10]; PA 109084, 18 h): 56 µM; Fold potentiation of ceftazidime (P. aeruginosa PA 109084 [10]; adjuvant at 1 μg/mL as printed): 16; Fold potentiation of aztreonam (P. aeruginosa PA 109084 [10]; adjuvant at 1 (PMBN, GCol), 0.5 (GPMB) μg/mL as printed): 16; Fold potentiation of ceftazidime (P. aeruginosa PA 109084 [10]; with 8 μM avibactam, adjuvant at 2 μg/mL as printed): 4; Fold potentiation of aztreonam (P. aeruginosa PA 109084 [10]; with 8 μM avibactam, adjuvant at 2 (PMBN), 0.5 (GCol, GPMB) μg/mL as printed): 16; MIC adjuvant alone (P. aeruginosa PA 86052 [11]): 16 µM; MIC adjuvant alone (P. aeruginosa PA 88949 [12]; PA 88949, 18 h): 16 µM; Fold potentiation of aztreonam (P. aeruginosa PA 88949 [12]; [15]): 1; Fold potentiation of ceftazidime (P. aeruginosa PA 88949 [12]; [15]): 1
